Entries after “also recorded” stand apart in the source; their conditions may differ.
What was measured:
[1] = system: patients with recurrent or metastatic HNSCC; assay: phase 1b dose escalation; assay type: in vivo; conditions: with fixed dose of cetuximab; doses 200-800 mg/day; assessed in cycle 1
[2] = suspension formulation compared with tablet; cited from earlier work
[3] = system: nasopharyngeal cancer; conditions: pazopanib tablet formulation 800 mg/day, monotherapy; cited from earlier work
[4] = system: patients with recurrent or metastatic HNSCC; assay: adverse events graded by NCI-CTCAE version 4.0, all cycles of treatment
[5] = system: recurrent or metastatic HNSCC; conditions: single-arm study; cited from earlier work
[6] = system: recurrent or metastatic HNSCC; conditions: first-line treatment; cited from earlier work

In the case of `Cc1ccc(Nc2nccc(N(C)c3ccc4c(C)n(C)nc4c3)n2)cc1S(N)(=O)=O` [pazopanib], the “maximum tolerated dose of pazopanib” value [1] is listed as “not reached”, the “decrease of time taken to reach Cmax (Tmax)” value [2] is listed as 50% and the “increase of area under the curve (AUC)(0–72 h)” value [2] is listed as 33%. The “increase of maximum plasma concentration (Cmax)” value [2] was 29%, the “disease control, patients” value [3] was 55% and the “grade 4 adverse events attributable to pazopanib” value ([4]; all 31 patients) was “no grade 4 adverse events”. The “most common grade 3 adverse events attributable to pazopanib” value ([4]; all cycles) was “hypertension, anaemia, fatigue, hypoalbuminaemia, and venous thromboembolism; also recorded: hypertension, anaemia, fatigue, hypoalbuminaemia, neutropenia, and diarrhoea”.
In the case of `CNC(=O)c1cc(Oc2ccc(NC(=O)Nc3ccc(Cl)c(C(F)(F)F)c3)cc2)ccn1` [sorafenib], the activity as monotherapy [5] is listed as “modest activity”.
For `CCN(CC)CCNC(=O)c1c(C)[nH]c(/C=C2\C(=O)Nc3ccc(F)cc32)c1C` [sunitinib], the activity as monotherapy [5] is given as “modest activity”.
For bevacizumab, the “effect of addition of bevacizumab to chemotherapy” value [6] is given as “improvement of progression-free survival and overall survival”.
